Read-outs that look alike come from different tables or passages of the source. No end group written: not given here.
How the values were obtained:
[1] = tested on: P. aeruginosa TISTR 357; type: cell-based, Pseudomonas aeruginosa; settings: TISTR 357, 24 h
Method: (§1) The MIC and MBC of the purified AMP were determined using the broth microdilution method following the guidance provided by the Clinical and Laboratory Standards Institute (CLSI). P. aeruginosa TISTR 357 and K. pneumoniae TISTR 1383 were cultured on MH agar and incubated at 37 °C for 18 h. A single colony of the tested bacteria was suspended in 0.85% NaCl until the suspension turbidity reached an OD of 0.1 at 625 nm. The cells were then diluted to 5 × 10^6 CFU/mL using cation-adjusted Mueller Hinton broth (CAMHB). The diluted cell suspension of 10 µL was transferred into each well of a 96-well plate with a final volume of 100 µL per well. The AMP was added to achieve final concentrations ranging from 0.125 to 64 µg/mL. Colistin was used as the positive control, while antibiotic-free samples were used as negative controls. The 96-well plate was incubated at 37 °C for 24 h. Each strain was tested in triplicate. […] Subsequently, 100 µL of each dilution was spread on MH agar and then incubated at 37 °C for 24 h. The MBC was identified as the lowest concentration at which no bacterial colony growth was observed on the agar plate.

[2] = tested on: K. pneumoniae TISTR 1383; type: cell-based, Klebsiella pneumoniae; settings: TISTR 1383, 24 h
Method: as §1

[3] = tested on: P. aeruginosa TISTR 357; assay: Time-kill assay; type: cell-based, Pseudomonas aeruginosa; settings: for reduction rate of viable cells: from initial treatment until eradication, 5 × 10^5 CFU/mL, CAMHB, 37 °C
Method: (§2) P. aeruginosa TISTR 357 and K. pneumoniae TISTR 1383 were separately adjusted to an initial treatment cell density of 5 × 10^5 CFU/mL with CAMHB. The experiment preparation followed the microdilution assay procedures. […] The reactions were carried out at 37 °C, followed by spreading the entire volume from each well in each treatment condition on MH agar at specific time intervals (0–24 h). The plates were placed in a 37 °C incubator for 24 h before counting the colonies. The trends in bacterial reduction were graphically depicted using a logarithmic scale of viable cells. The bacterial cell reduction was determined within 24 h. Each experiment was performed in triplicate on the 96-well plates.

[4] = tested on: K. pneumoniae TISTR 1383; assay: Time-kill assay; type: cell-based, Klebsiella pneumoniae; settings: for reduction rate of viable cells: 5 × 10^5 CFU/mL, CAMHB, 37 °C
Method: as §2

[5] = tested on: K. pneumoniae TISTR 1383; assay: Sytox Green uptake assay (cell membrane permeability); type: cell-based, Klebsiella pneumoniae; settings: 2× MIC; Sytox Green 10 µM, over 24 h; mean ± SD, triplicate
Method: The cell suspension was diluted with the diluent until the OD at 625 nm was equal to 0.1 (1.5 × 10^8 CFU/mL). An aliquot of the diluted cells (100 μL) was introduced into each well and incubated with 10 μM of Sytox Green (Thermo Fisher Scientific Inc., Waltham, MA, USA) in the dark for 15 min. […] After the introduction of the AMP, the cell membrane permeability of treated bacteria was evaluated by monitoring the fluorescence intensity resulting from the penetration of Sytox Green across the compromised cell membrane and subsequently binding to nucleic acid. […] Significant differences in fluorescence intensity of overall time points were analyzed by one-way ANOVA (p-value < 0.05) and post hoc Tukey’s test for multiple comparisons between treated and non-treated conditions [52].

[6] = tested on: P. aeruginosa TISTR 357; assay: Stability against temperatures, residual antibacterial activity; type: physicochemical, Pseudomonas aeruginosa; settings: AMP 16 µg/mL, agar well diffusion read-out, % of non-treated AMP, mean ± SD, n = 3
Method: (§3) The AMP was dissolved in sterile purified water and adjusted a final concentration to 16 µg/mL. The sensitivity of the AMP to temperatures of 37, 40, 50, 60, 80, and 100 °C, as well as autoclaving at 121 °C for 15 and 30 min was evaluated. The sensitivity of the AMP to proteolytic enzymes with different digesting characteristics was studied by incubating with a concentration of 1 mg/mL of proteinase K, trypsin, and α-chymotrypsin (Sigma-Aldrich, Warren, MI, USA). The compatibility of the AMP with surfactants was evaluated by exposing the AMP to 1% SDS or 1% Triton X-100 (AppliChem GmbH, Darmstadt, Germany). The degradation of the AMP under various pH conditions, including physiological and extended alkaline conditions, was evaluated by adjusting the pH of the solution to 1.2, 4.5, 6.8, 7.4, 8.0, 10.0, 12.0, and 14.0. After incubation, the pH of the AMP solution was neutralized to the original pH before being assessed for antibacterial activity. The antibacterial assay against P. aeruginosa TISTR 357 was conducted using the agar well diffusion assay in triplicate. The stability profiles are presented as the percentage of the residual activity compared with the non-treatment conditions (mean ± SD), and statistical significance was determined by the Student’s t-test at a p-value < 0.05.

[7] = tested on: P. aeruginosa TISTR 357; assay: Compatibility with surfactants, residual antibacterial activity; type: physicochemical, Pseudomonas aeruginosa; settings: AMP 16 µg/mL, agar well diffusion read-out, % of non-treated AMP, mean ± SD, n = 3
Method: as §3

[8] = tested on: P. aeruginosa TISTR 357; assay: Stability against pH, residual antibacterial activity; type: physicochemical, Pseudomonas aeruginosa; settings: neutralized before assay, AMP 16 µg/mL, agar well diffusion read-out, % of non-treated AMP, mean ± SD, n = 3
Method: as §3

[9] = target: Proteinase K (Parengyodontium album, UniProt P06873); settings: Proteinase K 1 mg/mL, AMP 16 µg/mL, agar well diffusion read-out, % of non-treated AMP, mean ± SD, n = 3
Chain of Proteinase K (P06873 106-384): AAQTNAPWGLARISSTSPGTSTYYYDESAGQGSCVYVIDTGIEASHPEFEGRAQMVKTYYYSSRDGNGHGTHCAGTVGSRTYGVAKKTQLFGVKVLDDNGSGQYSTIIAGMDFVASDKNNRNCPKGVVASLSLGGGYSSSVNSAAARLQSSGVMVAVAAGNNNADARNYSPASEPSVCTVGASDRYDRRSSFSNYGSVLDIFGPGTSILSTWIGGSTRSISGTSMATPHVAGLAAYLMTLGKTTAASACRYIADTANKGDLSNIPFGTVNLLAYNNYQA
Method: as §3

[10] = target: α-chymotrypsin (Bos taurus, UniProt P00766); settings: α-chymotrypsin 1 mg/mL, AMP 16 µg/mL, agar well diffusion read-out, % of non-treated AMP, mean ± SD, n = 3
Method: as §3

VKGDGGPGTVYTM [NNS5-6 AMP]
MBC [1]: 4 µg/mL | MIC [1]: 4 µg/mL | MBC [2]: 8 µg/mL | MIC [2]: 4 µg/mL | reduction rate of viable cells ([3]; 1× MIC): 0.6297 log CFU/h | treatment time to eradication of viable cells ([3]; 1× and 2× MIC): 8 h | reduction rate of viable cells ([3]; 2× MIC): 0.6421 log CFU/h | reduction of viable cells ([4]; 1× MIC, until 24 h of treatment, growth only suppressed): up to 2 log (CFU/mL) | reduction rate of viable cells ([4]; 1× MIC): 0.0579 log CFU/h | treatment time to eradication of viable cells ([4]; 2× MIC): ≤ 8 h | reduction rate of viable cells ([4]; 2× MIC): 0.5715 log CFU/h | fold increase in fluorescence intensity compared with non-treatment [5]: 3.21 ± 0.29 fold | % Residual Activity of NNS5-6 AMP against P. aeruginosa TISTR 357 ([6]; 37 °C, 1 h): 99.39 ± 1.98% | % Residual Activity of NNS5-6 AMP against P. aeruginosa TISTR 357 ([6]; 37 °C, 6 h): 99.39 ± 0.61% | % Residual Activity of NNS5-6 AMP against P. aeruginosa TISTR 357 ([6]; 37 °C, 12 h): 99.69 ± 0.95% | % Residual Activity of NNS5-6 AMP against P. aeruginosa TISTR 357 ([6]; 40 °C, 1 h): 99.80 ± 0.94% | % Residual Activity of NNS5-6 AMP against P. aeruginosa TISTR 357 ([6]; 40 °C, 6 h): 99.19 ± 0.93% | % Residual Activity of NNS5-6 AMP against P. aeruginosa TISTR 357 ([6]; 40 °C, 12 h): 99.07 ± 0.72% | % Residual Activity of NNS5-6 AMP against P. aeruginosa TISTR 357 ([6]; 50 °C, 1 h): 65.16 ± 3.07 % | % Residual Activity of NNS5-6 AMP against P. aeruginosa TISTR 357 ([6]; 50 °C, 6 h): 0.00 ± 0.00 % | % Residual Activity of NNS5-6 AMP against P. aeruginosa TISTR 357 ([6]; 50 °C, 12 h): 0.00 ± 0.00 % | % Residual Activity of NNS5-6 AMP against P. aeruginosa TISTR 357 ([6]; 60 °C, 1 h): 0.00 ± 0.00 % | % Residual Activity of NNS5-6 AMP against P. aeruginosa TISTR 357 ([6]; 60 °C, 6 h): 0.00 ± 0.00 % | % Residual Activity of NNS5-6 AMP against P. aeruginosa TISTR 357 ([6]; 60 °C, 12 h): 0.00 ± 0.00 % | % Residual Activity of NNS5-6 AMP against P. aeruginosa TISTR 357 ([6]; 80 °C, 1 h): 0.00 ± 0.00 % | % Residual Activity of NNS5-6 AMP against P. aeruginosa TISTR 357 ([6]; 80 °C, 6 h): 0.00 ± 0.00 % | % Residual Activity of NNS5-6 AMP against P. aeruginosa TISTR 357 ([6]; 80 °C, 12 h): 0.00 ± 0.00 % | % Residual Activity of NNS5-6 AMP against P. aeruginosa TISTR 357 ([6]; 100 °C, 1 h): 0.00 ± 0.00 % | % Residual Activity of NNS5-6 AMP against P. aeruginosa TISTR 357 ([6]; 100 °C, 6 h): 0.00 ± 0.00 % | % Residual Activity of NNS5-6 AMP against P. aeruginosa TISTR 357 ([6]; 100 °C, 12 h): 0.00 ± 0.00 % | % Residual Activity of NNS5-6 AMP against P. aeruginosa TISTR 357 ([6]; autoclave 121 °C, 15 psi, 15 min (same value in 1 h, 6 h and 12 h)): 0.00 ± 0.00 % | % Residual Activity of NNS5-6 AMP against P. aeruginosa TISTR 357 ([6]; autoclave 121 °C, 15 psi, 30 min (same value in 1 h, 6 h and 12 h)): 0.00 ± 0.00 % | % Residual Activity of NNS5-6 AMP against P. aeruginosa TISTR 357 ([7]; with 1% SDS, 1 h): 116.77 ± 1.80 % | % Residual Activity of NNS5-6 AMP against P. aeruginosa TISTR 357 ([7]; with 1% SDS, 6 h): 122.52 ± 1.86 % | % Residual Activity of NNS5-6 AMP against P. aeruginosa TISTR 357 ([7]; with 1% SDS, 12 h): 119.19 ± 1.53 % | % Residual Activity of NNS5-6 AMP against P. aeruginosa TISTR 357 ([7]; with 1% Triton X-100, 1 h): 116.17 ± 0.60 % | % Residual Activity of NNS5-6 AMP against P. aeruginosa TISTR 357 ([7]; with 1% Triton X-100, 6 h): 120.28 ± 1.53 % | % Residual Activity of NNS5-6 AMP against P. aeruginosa TISTR 357 ([7]; with 1% Triton X-100, 12 h): 120.81 ± 1.53 % | % Residual Activity of NNS5-6 AMP against P. aeruginosa TISTR 357 ([8]; pH 1.2, 1 h): 89.62 ± 1.85 % | % Residual Activity of NNS5-6 AMP against P. aeruginosa TISTR 357 ([8]; pH 1.2, 6 h): 83.83 ± 1.72 % | % Residual Activity of NNS5-6 AMP against P. aeruginosa TISTR 357 ([8]; pH 1.2, 12 h): 81.14 ± 1.71 % | % Residual Activity of NNS5-6 AMP against P. aeruginosa TISTR 357 ([8]; pH 4.5, 1 h): 97.31 ± 0.33% | % Residual Activity of NNS5-6 AMP against P. aeruginosa TISTR 357 ([8]; pH 4.5, 6 h): 95.69 ± 1.75% | % Residual Activity of NNS5-6 AMP against P. aeruginosa TISTR 357 ([8]; pH 4.5, 12 h): 95.62 ± 1.19% | % Residual Activity of NNS5-6 AMP against P. aeruginosa TISTR 357 ([8]; pH 6.8, 1 h): 97.31 ± 3.33% | % Residual Activity of NNS5-6 AMP against P. aeruginosa TISTR 357 ([8]; pH 6.8, 6 h): 96.46 ± 0.57% | % Residual Activity of NNS5-6 AMP against P. aeruginosa TISTR 357 ([8]; pH 6.8, 12 h): 96.00 ± 0.57% | % Residual Activity of NNS5-6 AMP against P. aeruginosa TISTR 357 ([8]; pH 7.4, 1 h): 98.65 ± 0.58% | % Residual Activity of NNS5-6 AMP against P. aeruginosa TISTR 357 ([8]; pH 7.4, 6 h): 98.18 ± 1.15% | % Residual Activity of NNS5-6 AMP against P. aeruginosa TISTR 357 ([8]; pH 7.4, 12 h): 98.48 ± 0.66% | % Residual Activity of NNS5-6 AMP against P. aeruginosa TISTR 357 ([8]; pH 8.0, 1 h): 99.23 ± 1.15% | % Residual Activity of NNS5-6 AMP against P. aeruginosa TISTR 357 ([8]; pH 8.0, 6 h): 97.22 ± 0.98% | % Residual Activity of NNS5-6 AMP against P. aeruginosa TISTR 357 ([8]; pH 8.0, 12 h): 98.48 ± 0.87% | % Residual Activity of NNS5-6 AMP against P. aeruginosa TISTR 357 ([8]; pH 10.0, 1 h): 98.85 ± 1.20% | % Residual Activity of NNS5-6 AMP against P. aeruginosa TISTR 357 ([8]; pH 10.0, 6 h): 97.42 ± 0.82% | % Residual Activity of NNS5-6 AMP against P. aeruginosa TISTR 357 ([8]; pH 10.0, 12 h): 98.10 ± 1.44% | % Residual Activity of NNS5-6 AMP against P. aeruginosa TISTR 357 ([8]; pH 12.0, 1 h): 94.31 ± 0.68 % | % Residual Activity of NNS5-6 AMP against P. aeruginosa TISTR 357 ([8]; pH 12.0, 6 h): 93.40 ± 0.78 % | % Residual Activity of NNS5-6 AMP against P. aeruginosa TISTR 357 ([8]; pH 12.0, 12 h): 90.10 ± 2.38 % | % Residual Activity of NNS5-6 AMP against P. aeruginosa TISTR 357 ([8]; pH 14.0, 1 h): 90.77 ± 0.88 % | % Residual Activity of NNS5-6 AMP against P. aeruginosa TISTR 357 ([8]; pH 14.0, 6 h): 84.40 ± 1.15 % | % Residual Activity of NNS5-6 AMP against P. aeruginosa TISTR 357 ([8]; pH 14.0, 12 h): 79.05 ± 1.75 % | % Residual Activity of NNS5-6 AMP against P. aeruginosa TISTR 357 ([9]; 1 h): 96.08 ± 3.41 % | % Residual Activity of NNS5-6 AMP against P. aeruginosa TISTR 357 ([9]; 6 h): 86.58 ± 1.22 % | % Residual Activity of NNS5-6 AMP against P. aeruginosa TISTR 357 ([9]; 12 h): 83.62 ± 1.34 % | % Residual Activity of NNS5-6 AMP against P. aeruginosa TISTR 357 ([10]; 1 h): 99.38 ± 0.95% | % Residual Activity of NNS5-6 AMP against P. aeruginosa TISTR 357 ([10]; 6 h): 99.42 ± 1.22% | % Residual Activity of NNS5-6 AMP against P. aeruginosa TISTR 357 ([10]; 12 h): 98.46 ± 0.88%

— publication PMC11428215, “Unveiling a New Antimicrobial Peptide with Efficacy against P. aeruginosa and K. pneumoniae from Mangrove-Derived Paenibacillus thiaminolyticus NNS5-6 and Genomic Analysis” (Antibiotics, 2024)
